Ends that are not written are not given here.

This assay has as its system spontaneous contractions of the rat uterus. Briefly: rat uterine contractility assay (Wiqvist & Paul). The class given is cell-based. As to the method: Using the above conditions chain combination yields from 1.5 to 6.0% have been achieved as measured by biological activity in the rat uterine contractility assay of Wiqvist & Paul (Acta Endocrinol., 29, 135-136, 1958).
Human relaxin H2 [S-thioethyl Cys^10,11,15 ] A(1-24) (4.2 mg dry wt., 2.4 mg peptide by amino acid analysis, 0.84 μmole) was dissolved in 500 μl of 0.1M glycine buffer pH 10.5 in a 3 ml stoppered plastic centrifuge tube. Human relaxin H2 [S-sulfo Cys^10,11 ] B(-1-24) (1.60 mg, 1.60 mg peptide by amino acid analysis, 0.33 μmole) dissolved in 200 μl of 0.1M glycine buffer pH 10.5 was added and the mixture agitated. An aliquot (23.0 μl, 2.21 μmole DTT) of a stock solution of dithithreitol (DTT) made up in 0.1M glycine buffer pH 10.5 (0.96 μmole DTT in 10 μl) was added to the peptide solution and following a brief agitation the reaction mixture was allowed to stand at 4° C. for 24 hours open to the air. The mixture was then centrifuged and aliquots of the supernatant solution tested for relaxin biological activity in the rat uterine contractility assay.
The synthetic S-sulfonated and S-thioethyl H2 human relaxin A(1-24) peptides were coupled to S-thioethyl H2 human relaxin B(-1-32) using the same chain combination procedures described previously for the shortened B-chain (-1-24). […]

On to “hRLX A(1-24)-B(-1-32): Authentic human relaxin H2: synthetic A chain (1-24) combined with full length B chain (-1-32) (Relaxin B chain DSWMEEVIKLCGRELVRAQIAICGMSTWS; Relaxin A chain QLYSALANKCCHVGCTKRSLARFC; ends and bridges not checked; cysteine pairing not given here; UniProt P04090 25-53; P04090 162-185, looked up)”, for which, where the note is “100 μl aliquot of chain combination mixture, compared to native pig relaxin A22 B31 standard”, the “inhibition of uterine contractions by a 100 μl aliquot” value is recorded as “completely inhibited uterine contractions”. Besides, the “inhibition of the spontaneous contractions of the rat uterus by aliquots of the chain combination reaction mixture” value (aliquots of supernatant of chain combination mixture) is recorded as “inhibited the spontaneous contractions of the rat uterus in a dose-related manner”.

(Values after patent publication US5326694A, “Process for synthesizing human H2-prorelaxin, human H2-relaxin and fusion proteins thereof” (Howard Florey Institute of Experimental Physiology and …, priority 1982, dated 1994).)
